ChEMBL document CHEMBL1201862, “PubChem BioAssay data set” (2004)
Counter-ions that a name gives are not always drawn. The source made the active and inactive calls.

How the values were obtained:
[1] = molecular target: Voltage-gated inwardly rectifying potassium channel KCNH2 (Homo sapiens, UniProt Q12809); details: Potency;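 also: confirmatory quantitative high-throughput screen measuring inhibition of hERG channel activity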
[2] = molecular target: Protein Wnt-3a (Mus musculus, UniProt P27467); assay: Wnt3a-driven reporter signaling inhibition, dose response, selectivity assay for Gli-SUFU antagonist project, Wnt-LIGHT cells, luminescence (AID 651570); assay type: functional; details: read-out: IC50_Mean;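 also: Wnt-LIGHT reporter cells stimulated with conditioned medium from Wnt3a-producing cells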
Chain of Protein Wnt-3a (P27467 whole entry): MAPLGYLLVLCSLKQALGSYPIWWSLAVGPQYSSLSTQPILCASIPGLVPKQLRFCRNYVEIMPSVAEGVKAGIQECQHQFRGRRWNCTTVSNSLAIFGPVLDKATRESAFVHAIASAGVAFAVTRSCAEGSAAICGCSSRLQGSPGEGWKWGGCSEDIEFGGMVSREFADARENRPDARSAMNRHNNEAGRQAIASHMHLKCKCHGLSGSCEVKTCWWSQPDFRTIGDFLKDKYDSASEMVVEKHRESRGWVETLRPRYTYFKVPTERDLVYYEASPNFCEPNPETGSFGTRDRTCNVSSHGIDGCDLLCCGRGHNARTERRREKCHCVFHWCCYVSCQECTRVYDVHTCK

[3] = tested on: Streptococcus sp. 'group A'; assay: growth inhibition of control SK(-) GAS strain, dose response, counter-screen for streptokinase expression inhibitor project, luminescence, kanamycin, BacTiterGlo, confirmation (AID 1900); assay type: functional, organism-based
[4] = microbe, parasite or virus in culture; assay type: functional; details: Mycobacterium tuberculosis
[5] = tested on: Streptococcus; assay: Group A Streptococcus viability loss, dose response, counter-screen for streptokinase expression inhibitor project, luminescence, BacTiterGlo (AID 1915); assay type: functional, organism-based;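 also: potency for reduction of bacterial viability or growth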
[6] = THP-1 cell cytotoxicity, dose response, cytotoxicity control for non-replicating M. tuberculosis project (AID 489025); assay type: functional
[7] = Vero E6 cell cytotoxicity, dose response, cytotoxicity control for non-replicating M. tuberculosis project, secondary assay (AID 492998); assay type: functional, VeroE6; details: Vero C1008
[8] = cells; assay type: functional
[9] = tested on: Vero; assay: cells; assay type: functional, cell-based; details: Chlorocebus sabaeus
[10] = tested on: Vero; assay: cells; assay type: functional; details: Chlorocebus sabaeus
[11] = molecular target: T1, Mitochondrial peptide methionine sulfoxide reductase (Bos taurus, UniProt P54149); assay type: functional;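 also: absorbance read-out, biochemical high-throughput dose-response screen for MsrA inhibitors, confirmatory; recombinant bovine MsrA coupled to E. coli TrxB with NADPH and selenocystamine; potency is for inhibitors of MsrA activity on DMSO substrate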
T1 sequence (P54149 whole entry): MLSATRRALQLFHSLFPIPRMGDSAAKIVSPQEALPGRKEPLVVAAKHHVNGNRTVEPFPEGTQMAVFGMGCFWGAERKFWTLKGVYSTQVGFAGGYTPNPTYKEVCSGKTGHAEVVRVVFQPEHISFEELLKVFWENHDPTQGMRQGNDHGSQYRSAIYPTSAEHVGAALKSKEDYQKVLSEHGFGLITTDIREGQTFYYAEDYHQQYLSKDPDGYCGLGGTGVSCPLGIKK

[12] = tested on: HEK293; assay: cells; assay type: functional, cell-based; details: Homo sapiens
[13] = molecular target: T2, Nuclear receptor subfamily 0 group B member 1 (Homo sapiens, UniProt P51843); assay: Luminescence-based cell-based high throughput dose response assay for inhibitors of the orphan nuclear receptor subfamily 0, group B, member 1 (DAX1; NR0B1). [Related pubchem assays (depositor defined):AID504766, AID504790]; assay type: functional
T2 sequence (P51843 whole entry): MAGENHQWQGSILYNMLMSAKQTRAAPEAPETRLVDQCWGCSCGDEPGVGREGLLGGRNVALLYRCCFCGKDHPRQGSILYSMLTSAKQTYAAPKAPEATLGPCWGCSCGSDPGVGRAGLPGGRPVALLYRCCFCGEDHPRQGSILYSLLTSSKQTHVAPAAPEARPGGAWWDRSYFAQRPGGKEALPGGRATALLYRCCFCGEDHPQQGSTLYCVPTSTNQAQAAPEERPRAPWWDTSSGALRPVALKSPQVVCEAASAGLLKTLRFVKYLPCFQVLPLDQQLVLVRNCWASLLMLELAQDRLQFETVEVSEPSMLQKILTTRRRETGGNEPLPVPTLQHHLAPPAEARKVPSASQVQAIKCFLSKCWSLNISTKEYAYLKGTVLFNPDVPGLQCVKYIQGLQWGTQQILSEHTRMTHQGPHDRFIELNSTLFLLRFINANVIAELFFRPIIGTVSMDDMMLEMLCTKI

[14] = molecular target: 26S proteasome non-ATPase regulatory subunit 14 (Homo sapiens, UniProt O00487); assay: inhibition of proteasome subunit RPN11 – biochemical, fluorescence polarization, uHTS hits, confirmation (AID 602368); assay type: functional
Chain of 26S proteasome non-ATPase regulatory subunit 14 (O00487 whole entry): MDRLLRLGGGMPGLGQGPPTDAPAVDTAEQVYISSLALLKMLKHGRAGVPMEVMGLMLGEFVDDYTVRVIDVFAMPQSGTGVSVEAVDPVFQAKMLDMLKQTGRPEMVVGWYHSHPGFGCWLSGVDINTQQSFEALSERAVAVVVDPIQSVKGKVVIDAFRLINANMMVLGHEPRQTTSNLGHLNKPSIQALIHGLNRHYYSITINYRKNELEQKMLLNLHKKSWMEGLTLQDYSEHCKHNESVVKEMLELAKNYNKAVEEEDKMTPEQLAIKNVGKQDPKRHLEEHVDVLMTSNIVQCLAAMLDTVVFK

[15] = molecular target: 72 kDa type IV collagenase (Homo sapiens, UniProt P08253); assay: Dose Response validation of uHTS RPN11 inhibitor hits using a MMP-2 Fluorescence assay.; assay type: functional
Chain of 72 kDa type IV collagenase (P08253 whole entry): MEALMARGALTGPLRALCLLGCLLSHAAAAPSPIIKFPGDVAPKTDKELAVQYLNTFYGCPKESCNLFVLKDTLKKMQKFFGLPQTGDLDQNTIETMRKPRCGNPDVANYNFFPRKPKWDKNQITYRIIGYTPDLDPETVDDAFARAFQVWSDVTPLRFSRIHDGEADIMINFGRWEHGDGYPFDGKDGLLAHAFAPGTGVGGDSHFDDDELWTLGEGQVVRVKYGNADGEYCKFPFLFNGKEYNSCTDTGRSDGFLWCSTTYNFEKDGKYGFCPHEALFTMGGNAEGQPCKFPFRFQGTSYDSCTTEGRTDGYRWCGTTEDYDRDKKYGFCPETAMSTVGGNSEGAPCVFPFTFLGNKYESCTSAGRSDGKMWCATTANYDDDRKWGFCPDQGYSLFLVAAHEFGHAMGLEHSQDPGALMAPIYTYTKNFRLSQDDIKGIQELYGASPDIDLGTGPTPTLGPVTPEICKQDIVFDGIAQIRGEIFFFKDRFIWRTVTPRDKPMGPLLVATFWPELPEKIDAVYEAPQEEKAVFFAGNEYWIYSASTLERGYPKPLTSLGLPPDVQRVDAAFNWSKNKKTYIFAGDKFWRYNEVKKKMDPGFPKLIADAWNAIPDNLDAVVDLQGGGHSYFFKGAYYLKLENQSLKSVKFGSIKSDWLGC

[16] = molecular target: Prothrombin (Bos taurus, UniProt P00735); assay: thrombin inhibition, dose response, biochemical, fluorescence polarization, uHTS hits (AID 602369); assay type: functional
[17] = molecular target: T3, Carboxy-terminal domain RNA polymerase II polypeptide A small phosphatase 1 (Homo sapiens, UniProt Q9GZU7); assay: inhibitors of CTDSP1, concentration-response testing, biochemical assay, absorbance-based, actives from ultra-high-throughput screening (AID 540297); assay type: functional
T3 sequence (Q9GZU7 whole entry): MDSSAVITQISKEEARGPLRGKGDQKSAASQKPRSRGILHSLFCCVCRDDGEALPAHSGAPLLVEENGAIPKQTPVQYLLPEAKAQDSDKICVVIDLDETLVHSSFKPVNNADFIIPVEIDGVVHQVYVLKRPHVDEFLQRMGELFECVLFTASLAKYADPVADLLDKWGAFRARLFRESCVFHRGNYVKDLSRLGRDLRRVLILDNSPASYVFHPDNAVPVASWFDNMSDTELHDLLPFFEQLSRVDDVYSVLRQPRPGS

[18] = molecular target: T4, CAAX prenyl protease 1 (Saccharomyces cerevisiae S288c, UniProt P47154); assay: Ste24 protease inhibitors, dose response, biochemical, S. cerevisiae, plate reader, cherry-pick (AID 488815)
T4 sequence (P47154 whole entry): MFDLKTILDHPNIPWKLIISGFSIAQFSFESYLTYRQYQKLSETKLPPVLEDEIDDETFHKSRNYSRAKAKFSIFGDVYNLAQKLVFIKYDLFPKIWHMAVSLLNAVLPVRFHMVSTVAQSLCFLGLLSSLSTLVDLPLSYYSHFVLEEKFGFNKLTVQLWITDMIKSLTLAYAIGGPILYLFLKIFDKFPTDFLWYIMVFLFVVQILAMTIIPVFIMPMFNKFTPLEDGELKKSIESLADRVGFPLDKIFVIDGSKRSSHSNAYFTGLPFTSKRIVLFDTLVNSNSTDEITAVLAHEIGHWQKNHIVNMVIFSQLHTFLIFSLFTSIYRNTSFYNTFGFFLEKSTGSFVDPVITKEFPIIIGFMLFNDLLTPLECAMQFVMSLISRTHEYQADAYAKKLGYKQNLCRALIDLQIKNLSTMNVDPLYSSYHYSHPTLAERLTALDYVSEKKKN

[19] = molecular target: T5, CAAX prenyl protease 2 (Homo sapiens, UniProt Q9Y256); assay: human Rce1 protease inhibitors, dose response, biochemical, yeast membranes, quenched-peptide fluorescence, cherry-pick (AID 588849)
T5 sequence (Q9Y256 whole entry): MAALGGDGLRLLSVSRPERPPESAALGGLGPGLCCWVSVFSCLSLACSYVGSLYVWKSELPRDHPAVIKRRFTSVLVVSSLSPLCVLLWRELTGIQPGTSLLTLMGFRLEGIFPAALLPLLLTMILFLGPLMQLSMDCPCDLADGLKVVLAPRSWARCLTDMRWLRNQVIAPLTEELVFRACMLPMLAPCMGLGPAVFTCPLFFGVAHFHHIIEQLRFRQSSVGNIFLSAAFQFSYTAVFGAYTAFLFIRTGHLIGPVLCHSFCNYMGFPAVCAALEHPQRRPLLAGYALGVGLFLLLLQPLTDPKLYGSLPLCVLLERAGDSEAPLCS

[20] = molecular target: T6, Corticotropin-releasing factor receptor 2/Corticotropin-releasing factor-binding protein (Homo sapiens, UniProt P24387+Q13324); assay: Dose Response confirmation of uHTS hits for small molecule antagonists of the CRF-binding protein and CRF-R2 receptor complex.; assay type: functional; details: read-out: IC50_Mean
T6 sequence (Q13324 whole entry): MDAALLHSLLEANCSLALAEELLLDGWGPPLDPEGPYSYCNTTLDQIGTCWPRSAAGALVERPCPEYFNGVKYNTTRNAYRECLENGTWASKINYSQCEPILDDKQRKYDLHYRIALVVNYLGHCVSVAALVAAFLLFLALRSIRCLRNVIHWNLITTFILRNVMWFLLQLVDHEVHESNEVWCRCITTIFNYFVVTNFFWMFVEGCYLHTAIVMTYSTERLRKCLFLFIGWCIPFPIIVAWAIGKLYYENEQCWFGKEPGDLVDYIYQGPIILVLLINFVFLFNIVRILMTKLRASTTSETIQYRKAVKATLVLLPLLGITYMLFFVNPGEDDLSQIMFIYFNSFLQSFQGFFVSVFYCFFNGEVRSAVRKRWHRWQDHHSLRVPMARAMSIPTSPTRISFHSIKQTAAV
T6 sequence (P24387 whole entry): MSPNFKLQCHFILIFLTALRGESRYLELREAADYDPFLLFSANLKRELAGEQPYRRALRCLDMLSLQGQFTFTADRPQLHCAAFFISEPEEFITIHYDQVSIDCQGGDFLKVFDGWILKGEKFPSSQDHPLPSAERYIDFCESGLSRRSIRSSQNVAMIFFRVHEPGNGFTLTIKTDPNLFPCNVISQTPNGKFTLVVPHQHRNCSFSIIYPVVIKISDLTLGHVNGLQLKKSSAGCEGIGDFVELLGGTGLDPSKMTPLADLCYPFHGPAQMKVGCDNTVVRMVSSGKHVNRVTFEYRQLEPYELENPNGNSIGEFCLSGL

[21] = molecular target: T6, Corticotropin-releasing factor receptor 2/Corticotropin-releasing factor-binding protein; assay: activators of CRF receptor 2 with binding protein – uHTS hits, confirmation (AID 602473); assay type: functional; details: read-out: EC50_Mean
[22] = molecular target: T7, Rac GTPase-activating protein 1 (Homo sapiens, UniProt Q9H0H5); assay: MgcRacGAP GTPase-activating activity inhibitors, confirmation, biochemical, ADP Hunter fluorescence, primary and confirmatory (AID 624330); assay type: functional
T7 sequence (Q9H0H5 whole entry): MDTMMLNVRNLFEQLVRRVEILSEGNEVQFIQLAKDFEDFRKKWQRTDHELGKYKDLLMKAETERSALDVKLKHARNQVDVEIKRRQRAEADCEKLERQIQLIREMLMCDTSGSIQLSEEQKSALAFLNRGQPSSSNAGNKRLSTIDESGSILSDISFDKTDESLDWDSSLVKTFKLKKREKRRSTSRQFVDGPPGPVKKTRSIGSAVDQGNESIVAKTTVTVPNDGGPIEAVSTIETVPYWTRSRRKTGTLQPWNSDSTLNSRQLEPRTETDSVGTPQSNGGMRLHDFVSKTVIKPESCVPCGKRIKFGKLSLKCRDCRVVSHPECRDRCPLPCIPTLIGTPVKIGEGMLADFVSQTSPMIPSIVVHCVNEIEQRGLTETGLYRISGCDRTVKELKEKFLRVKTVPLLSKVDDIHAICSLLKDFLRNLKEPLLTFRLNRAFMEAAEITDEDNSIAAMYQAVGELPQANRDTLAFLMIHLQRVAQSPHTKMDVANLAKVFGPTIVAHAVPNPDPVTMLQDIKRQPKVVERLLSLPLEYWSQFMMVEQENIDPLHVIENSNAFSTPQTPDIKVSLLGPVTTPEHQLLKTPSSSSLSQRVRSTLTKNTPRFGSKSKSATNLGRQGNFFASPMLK

[23] = A Cell Based Secondary Assay To Explore Cytotoxicity of Compounds that Sensitize Mycobacterium Tuberculosis to Beta-Lactam Antibiotics.; assay type: functional

Chain of Voltage-gated inwardly rectifying potassium channel KCNH2 (Q12809 whole entry): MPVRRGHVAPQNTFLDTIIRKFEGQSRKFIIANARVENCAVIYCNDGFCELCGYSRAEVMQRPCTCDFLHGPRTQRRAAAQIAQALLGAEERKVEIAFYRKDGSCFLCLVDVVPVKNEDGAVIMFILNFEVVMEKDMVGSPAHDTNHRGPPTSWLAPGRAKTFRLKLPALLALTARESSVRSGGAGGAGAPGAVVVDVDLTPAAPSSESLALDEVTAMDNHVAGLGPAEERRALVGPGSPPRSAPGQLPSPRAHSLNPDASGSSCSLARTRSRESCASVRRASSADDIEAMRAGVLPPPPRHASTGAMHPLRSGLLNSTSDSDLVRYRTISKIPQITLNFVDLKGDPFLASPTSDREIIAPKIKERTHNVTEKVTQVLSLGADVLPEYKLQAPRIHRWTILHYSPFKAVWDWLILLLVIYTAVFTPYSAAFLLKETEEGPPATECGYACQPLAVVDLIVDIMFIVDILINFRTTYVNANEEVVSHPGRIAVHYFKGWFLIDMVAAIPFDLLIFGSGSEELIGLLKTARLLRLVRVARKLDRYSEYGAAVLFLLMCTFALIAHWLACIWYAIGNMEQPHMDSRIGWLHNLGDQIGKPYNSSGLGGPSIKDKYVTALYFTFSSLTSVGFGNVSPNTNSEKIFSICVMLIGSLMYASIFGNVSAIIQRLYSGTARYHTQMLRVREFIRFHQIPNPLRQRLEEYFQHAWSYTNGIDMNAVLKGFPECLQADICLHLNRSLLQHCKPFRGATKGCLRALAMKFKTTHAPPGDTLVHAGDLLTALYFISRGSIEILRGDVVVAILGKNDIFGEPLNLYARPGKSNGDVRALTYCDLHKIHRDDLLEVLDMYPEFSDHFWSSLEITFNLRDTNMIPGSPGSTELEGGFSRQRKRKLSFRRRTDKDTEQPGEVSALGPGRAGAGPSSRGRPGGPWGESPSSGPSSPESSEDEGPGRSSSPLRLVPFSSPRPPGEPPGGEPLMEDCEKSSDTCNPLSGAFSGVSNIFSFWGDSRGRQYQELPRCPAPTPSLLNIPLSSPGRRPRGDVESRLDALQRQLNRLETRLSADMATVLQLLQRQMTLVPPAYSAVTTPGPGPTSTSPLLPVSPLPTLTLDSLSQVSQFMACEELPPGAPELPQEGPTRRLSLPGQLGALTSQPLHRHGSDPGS

SMILES: COC(=O)[C@H](NC(=O)c1cc(-c2ccccc2)nc2ccccc12)c1ccccc1
- AC50 [1]: 0.794 µM (inconclusive)

SMILES: FC(F)Oc1ccc(-[n+]2cc(-c3ccccc3)n3c2CCCCC3)cc1
- IC50 [2]: 12.5 µM (active)

SMILES: CC(Oc1ccc2ccccc2c1)C(=O)NNC(=S)NC(=O)c1ccco1 (stereo unspecified)
- EC50 [3]: 0.074 µM (active)
- CC50 [4]: 39.5 µM (active)
- EC50 [5]: 0.432 µM (active)
- CC50 [6]: 27.3 µM (active)
- CC50 [7]: > 20 µM (active)
- IC50 [8]: 6.03 µM (active)
- IC50 [9]: 24.6 µM (active)
- CC50 [10]: > 25 µM (active)

SMILES: COCCNc1nc2c(c(=O)n(C)c(=O)n2C)n1Cc1cccc(C)c1
- IC50 [2]: 1.95 µM (active)

SMILES: C/C(=N\Nc1ccc([N+](=O)[O-])cc1[N+](=O)[O-])c1cccnc1
- IC50 [11]: 155 µM (inactive)

SMILES: O=C(O)CC(NNC(=O)c1ccccc1)C(=O)Nc1ccc([N+](=O)[O-])cc1 (stereo unspecified)
- IC50 [12]: > 67.5 µM (inactive)
- IC50 [13]: > 67.5 µM (inactive)

SMILES: O=[N+]([O-])c1ccc(N/N=C\c2cccn2-c2ccccc2)nc1
- IC50 [14]: 23.5 µM (active)
- IC50 [15]: > 100 µM (inactive)
- IC50 [16]: 29.5 µM (active)

SMILES: COc1ccccc1NC(=O)CSc1ccc(-c2ccc(-n3cccn3)cc2)nn1
- IC50 [14]: 15.7 µM (active)
- IC50 [15]: > 100 µM (inactive)
- IC50 [16]: > 100 µM (inactive)

SMILES: COc1cc2c(cc1OC)-c1c/c(=N\c3c(C)cc(C)cc3C)n(C)c(=O)n1CC2 [TREQUINSIN HYDROCHLORIDE]
- AC50 [1]: 35.5 µM (inconclusive)

SMILES: O=C(Nc1nc2ccsc2c(=O)s1)c1ccc(F)cc1Cl
- IC50 [12]: > 67.5 µM (inactive)
- IC50 [13]: > 67.5 µM (inactive)
- IC50 [17]: 31.7 µM (active)

SMILES: COc1ccc(Cn2c(N)c(S(=O)(=O)c3cccs3)c3nc4ccccc4nc32)cc1
- AC50 [18]: 2.79 µM (active)
- AC50 [19]: 4.33 µM (active)

SMILES: CC1(C)CC(NCCC(c2ccccc2)c2ccco2)CCO1 (stereo unspecified)
- IC50 [12]: > 67.5 µM (inactive)
- IC50 [13]: > 67.5 µM (inactive)
- IC50 [20]: > 47.1 µM (inactive)
- EC50 [21]: > 53 µM (inactive)

SMILES: Cc1ccc(C)c(N2CCN(c3ncnc4c3cnn4-c3ccccc3)CC2)c1
- IC50 [9]: > 25 µM (active)
- CC50 [10]: > 25 µM (active)

SMILES: CN1C(=O)/C(=C/C=C2/CCCN2C)N(C)C1=S
- IC50 [14]: 8.15 µM (active)
- IC50 [15]: > 100 µM (inactive)
- IC50 [16]: 29 µM (active)
- IC50 [22]: 24.2 µM (active)

SMILES: CC(C)(CO)Cc1cc(C(C)(C)C)c(O)c(C(C)(C)C)c1
- AC50 [1]: 35.5 µM (inconclusive)

SMILES: CCNc1nc(CN2CCCCC2)nc2scc(-c3ccccc3)c12
- CC50 [23]: > 40 µM (active)
- IC50 [2]: 5.03 µM (active)

SMILES: O=C(COc1ccc(Cl)cc1Cl)OCC(=O)N1CCCc2ccccc21
- IC50 [12]: > 67.5 µM (inactive)
- IC50 [13]: > 67.5 µM (inactive)
